Results reported in patent US20260115209A1, “COMBINATION THERAPY INCLUDING COX-2 INHIBITOR FOR THE TREATMENT OF CANCER” (THE REGENTS OF THE UNIVERSITY OF CALIFORNIA, priority 2022, published 2026).

Assays:
SRC = assay: Automated IHC of active and total SRC in PDX tumors; type: in vivo, mice; conditions: both PDX models after 3 or 21 days of treatment; FIGS. 1E, 1F, 8B, 8C
Description: Primary antibody was diluted in Discovery Ab Diluent.
To detect phospho-Y419 SRC, phospho-Src (Y419) […] rabbit polyclonal supplied by R&D Systems (Cat #AF2685) was used at a titration of 1:50. […] Inhibitor was applied for 16 min.
To detect total SRC, TOTAL SRC (36D1) rabbit monoclonal manufactured by Cell Signaling Technology (Cat #2109) was used at a titration of 1:800. […] Inhibitor was applied for 16 minutes.

LIM2405 = assay: Cell viability assay (CellTiter-Glo), GI50, 3-day treatment; type: cell-based; conditions: 72 h; LIM2405 (BRAF^V600E CRC); 50% growth inhibition after 3 days of treatment compared to control; read-out: GI50 concentrations
Description: (§1) To assess the growth/survival response of cell lines to single or combinatorial drug treatments, we used CellTiter-Glo cell viability assay (Promega; cat #G7571). Cell culture and luminescence readouts were performed in 96- and 384-well plates after 3-day treatments. GI50 corresponds to the concentration of a given drug that causes 50% inhibition of cell growth (GI50). The effects of drug combinations on cell growth were assessed by calculating fold change in VEM-sensitivity and combination index (C.I.) that were experimentally measured from ≥9 individual datapoints around drugs' GI50, i.e. at GI50, 0.5×GI50, 2×GI50 concentrations of each drug per drug combination experiment. To address the particular effects of some drug treatments on some cell lines, the choice of experimental datapoints centered around drugs' GI50 effects was adjusted by including individual datapoints ranging from ≥GI25 to ≤GI75, leading to calculate fold change in VEM-sensitivity and combination index (C.I.) from 12 to 20 individual datapoints, as previously explained (7).

HT29 = assay: as above; type: cell-based; conditions: Homo sapiens, HT-29, 72 h; HT29 (BRAF^V600E CRC); 50% growth inhibition after 3 days of treatment compared to control; read-out: GI50 concentrations
Description: as §1

KM20 = assay: as above; type: cell-based; conditions: 72 h; KM20 (BRAF^V600E CRC); 50% growth inhibition after 3 days of treatment compared to control; read-out: GI50 concentrations
Description: as §1

SNUC5 = assay: as above; type: cell-based; conditions: 72 h; SNUC5 (BRAF^V600E CRC); 50% growth inhibition after 3 days of treatment compared to control; read-out: GI50 concentrations
Description: as §1

LS411N = assay: as above; type: cell-based; conditions: Homo sapiens, LS-411N, 72 h; LS411N (BRAF^V600E CRC); 50% growth inhibition after 3 days of treatment compared to control; read-out: GI50 concentrations
Description: as §1

WiDr = assay: as above; type: cell-based; conditions: Homo sapiens, 72 h; WiDr (BRAF^V600E CRC); 50% growth inhibition after 3 days of treatment compared to control; read-out: GI50 concentrations
Description: as §1

Sk-Mel-28 = assay: as above; type: cell-based; conditions: Homo sapiens, 72 h; Sk-Mel-28 (BRAF^V600E melanoma); 50% growth inhibition after 3 days of treatment compared to control; read-out: GI50 concentrations
Description: as §1

RKO1 = assay: as above; type: cell-based; conditions: 72 h; RKO1 (BRAF^V600E CRC); 50% growth inhibition after 3 days of treatment compared to control; read-out: GI50 concentrations
Description: as §1

OUMS23 = assay: as above; type: cell-based; conditions: OUMS-23, 72 h; OUMS23 (CRC MAP3K8^amp); 50% growth inhibition after 3 days of treatment compared to control; read-out: GI50 concentrations
Description: as §1

A375 = assay: as above; type: cell-based; conditions: Homo sapiens, A-375, 72 h; A375 (BRAF^V600E melanoma); 50% growth inhibition after 3 days of treatment compared to control; read-out: GI50 concentrations
Description: as §1

VACO432 = assay: as above; type: cell-based; conditions: 72 h; VACO432 (BRAF^V600E CRC); 50% growth inhibition after 3 days of treatment compared to control; read-out: GI50 concentrations
Description: as §1

[1] = tested on: beta-catenin (CTNNB1) Y654; assay: Western blot of beta-catenin Y654 phosphorylation; type: cell-based; conditions: BRAF^V600E CRC cell lines, FIG. 4A, 11C, 12A
Description: (§2) For samples to be analyzed with the HT-KAM platform, cells at ˜85% confluency were washed three times with cold PBS and lysed with freshly prepared 1× cell lysis buffer (1 ml per 2.5×10^6 cells) (lOX Cell Lysis Buffer, Cell Signaling; cat. #9803) complemented with 1× of Halt Protease & Phosphatase (100×, ThermoScientific; cat. #1861281). Cell lysates were collected and spun down at 14,000 rpm for 15 min at 4° C. and supernatants stored at −80° C. For samples to be analyzed by western blot, cell lysates were prepared with RIPA lysis buffer (150 mM NaCl, 0.1% SDS, 1% Nonidet P40, 1% sodium deoxycholate and 10 mM sodium phosphate, pH 7.2) supplemented with protease and phosphatase inhibitors. After clearing by centrifugation at 12,000 rpm for 10 minutes at 4° C., the lysates were analyzed as described in the respective experiments.
(§3) For western-blot, samples were denatured by boiling in 1× Laemmli buffer and run on an 8% SDS-PAGE gel. After transfer onto a PVDF membrane and blocking with 3% BSA, the membranes were incubated with primary antibodies overnight at 4° C., washed 3 times with TBST (Tris-buffered saline containing 0.05% Tween-20), incubated with secondary antibodies for 1 hour at room temperature and developed using chemoluminescence (cat #32209 from Pierce).

SFK = assay: Western blot of SFK activation (Y419 phosphorylation); type: cell-based; conditions: BRAF^V600E CRC cell lines
Description: as §2, §3
Antibodies anti-HSP90 was procured from Santa Cruz Biotechnologies (H-114, cat #7947). […]

[2] = tested on: BRAF^V600E CRC cell lines; assay: Cell viability assays, drug combinations, shift in vemurafenib sensitivity and combination index; type: cell-based; conditions: FIG. 5C
Description: To assess the growth/survival response of cell lines to single or combinatorial drug treatments, we used CellTiter-Glo cell viability assay (Promega; cat #G7571). Cell culture and luminescence readouts were performed in 96- and 384-well plates after 3-day treatments.
To calculate CI values in FIGS. 2A, 2B, 2E, FIGS. 5C, 5E, 5G and FIG. 6A, we applied the Bliss Independence model (54,55), which uses experimental profiles and avoids inaccuracies that commonly occur with dose-effect curve estimation approaches. CI is calculated as CI=−log 2 (Eab/(Ea*Eb)), where Ea and Eb correspond to the effects of drugs a and b alone at a given concentration, and Eab corresponds to the combined effects of drugs a and b at these same concentrations. In this model, CI>0 indicates synergistic effect, CI=0 indicates additivity effect, CI<0 indicates antagonistic effect.
To compare the effects of triple versus dual drug combinations in FIG. 3B, we calculated CI as follow: CI=−log 2 (Eabc/(Ea*Eb)), where Ea and Eb correspond to the effects of drugs a/VEM, b/GEF alone at a given concentration, and Eabc corresponds to the combined effects of drugs a and b at these same concentrations combined with a third drug (c/DAS) at the cell line-specific GI50 of DAS.

CC(C)(C)c1nc(-c2cccc(NS(=O)(=O)c3c(F)cccc3F)c2F)c(-c2ccnc(N)n2)s1 [dabrafenib, N-[3-[5-(2-Amino-4-pyrimidinyl)-2-(2-methyli-2-propanyl)-1,3-tliazol-4-yl]-2-fluorophenyl]-2,6-difluorobenzenesulfonarmide]
active and total SRC (IHC) (SRC): statistically significant increases

CC(=O)Nc1cccc(-n2c(=O)n(C3CC3)c(=O)c3c(Nc4ccc(I)cc4F)n(C)c(=O)c(C)c32)c1 [trametinib, N-[3-[3-cyclopropyl-5-(2-fluoro-4-iodoanilino)-6,8-dimethyl-2,4,7-trioxopyrido[4,3-d]pyrimidin-1-yl]phenyl]acetamide]
active and total SRC (IHC) (SRC): statistically significant increases

COc1cc2ncnc(Nc3ccc(F)c(Cl)c3)c2cc1OCCCN1CCOCC1 [gefitinib, N-(3-chloro-4-fluorophenyl)-7-methoxy-6-(3-morpholin-4-ylpropoxy)quinazolin-4-amine]
GI50 (LIM2405): 30 µM | GI50 (HT29): 25 µM | GI50 (KM20): 20 µM | GI50 (SNUC5): 30 µM | GI50 (LS411N): 30 µM | GI50 (WiDr): 10 µM | GI50 (Sk-Mel-28): 20 µM | GI50 (RKO1): 40 µM | GI50 (OUMS23): 40 µM | GI50 (A375): 30 µM | GI50 (VACO432): 7.5 µM

Cc1nc(Nc2ncc(C(=O)Nc3c(C)cccc3Cl)s2)cc(N2CCN(CCO)CC2)n1 [dasatinib, N-(2-chloro-6-mnethylphenyl)-2-[[6-[4-(2-hydroxyethyl)piperazin-1-yl]-2-methylpyrimidin-4-yl]amino]-1,3-thiazole-5-carboxamide]
GI50 (LIM2405): 1.5 µM | GI50 (HT29): 8 µM | GI50 (KM20): 0.8 µM | GI50 (SNUC5): 6.5 µM | GI50 (LS411N): 3 µM | GI50 (WiDr): 0.9 µM | GI50 (Sk-Mel-28): 6.5 µM | GI50 (RKO1): 10 µM | GI50 (OUMS23): 1.9 µM | GI50 (A375): 3.5 µM | GI50 (VACO432): 2 µM

CCCCC[C@H](O)/C=C/[C@H]1[C@H](O)CC(=O)[C@@H]1C/C=C\CCCC(=O)O [PGE2, Prostaglandin E2]
phosphorylation of beta-catenin (CTNNB1) at Y654 [1]: increase in phosphorylation | SFK activation (phosphorylation of Y419) (SFK): increase in SFK activation | increase in resistance to vemurafenib ([2]; BRAF^V600E CRC cells treated with PGE2, 3-day cell viability assays): 2 to 4 fold | CI scores ([2]; PGE2 with vemurafenib in BRAF^V600E CRC cells, Bliss model): antagonism
